Test results taken from US20250313563A1, “GLYCOGEN SYNTHASE KINASE 3 INHIBITORS AND USES THEREOF” (The Broad Institute, Inc., priority 2022, published 2025).
Where two headings read alike, the source gives them in different places.

Assays:
GSK3α = GSK3α (Rattus norvegicus (Rat), UniProt P18265); assay: In vivo target engagement assay (chemoproteomics, kinobeads), GSK3α; settings: P10 rat cortex
Method: Chemoproteomics competition was used to evaluate inhibitor selectivity and target engagement in vivo. Frozen cortexes were prepared for homogenization with 1.2 mL of Lysis Buffer (50 mM Tris-HCl, 0.8% NP-40 ((octylphenoxy poly(ethyleneoxy) ethanol)), 5% glycerol, 150 mM NaCl, 1.5 mM MgCl2, 25 mM NaF, 1 mM sodium vanadate, 1 mM DTT, pH 7.5 and supplemented with protease inhibitors). Tissues were homogenized in FastPrep-24 5G instrument at maximum oscillations for 20 seconds. The resulting brain homogenate was clarified by centrifugation for 1 h at 145 000 g, 4° C. The protein concentration of the supernatant was determined by BCA assay and each sample was diluted to final concentration of 5 mg/mL with lysis buffer. […] The dry peptide mixture was reconstituted in 15 μL of 0.1% trifluoro acetic acid and analyzed on ID nanoLC-MS/MS platform using a standardized 140 min method. Peptides were separated on an Easy-Spray column (75 μm×50 cm, PepMAP C18, 1.9 μm) at 250 nL/min, analyzed on a QExactive HF mass spectrometer at data dependent acquisition (DDA) mode with MS1 at 60,000 and MS2 at 15,000 resolution, respectively. […]
To measure direct target engagement of the compound for both GSK3α and GSK3β competitive chemoproteomics methodology was used. […] Enriched proteins were analyzed by liquid chromatography coupled with tandem mass spectrometry. […]

[1] = molecular target: GSK3b (GST-full length GSK3b) (Homo sapiens (Human), UniProt P49841); assay: GSK3b TR-FRET kinase assay; type: biochemical; settings: geometric mean, GMean
Chain of GSK3b (GST-full length GSK3b) (P49841 whole entry): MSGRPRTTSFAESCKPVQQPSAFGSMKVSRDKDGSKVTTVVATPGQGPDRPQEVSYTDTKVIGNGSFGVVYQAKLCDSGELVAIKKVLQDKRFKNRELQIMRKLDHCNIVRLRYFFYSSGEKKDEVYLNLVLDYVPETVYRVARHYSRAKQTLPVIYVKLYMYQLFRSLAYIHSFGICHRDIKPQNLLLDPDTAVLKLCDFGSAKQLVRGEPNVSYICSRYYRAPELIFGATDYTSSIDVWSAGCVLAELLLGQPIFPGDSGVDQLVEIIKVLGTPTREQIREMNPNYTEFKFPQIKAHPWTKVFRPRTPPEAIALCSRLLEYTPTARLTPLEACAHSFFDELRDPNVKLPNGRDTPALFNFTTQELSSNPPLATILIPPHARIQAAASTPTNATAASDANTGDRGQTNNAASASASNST
Procedure, shortened: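 Compound was preincubated 30 min with 1 nM GST-GSK3 enzyme. Reaction ran 100 min at ambient temperature in Tris pH 7.5/MgCl2 with 200 nM biotinylated pS645-glycogen synthase 631-650 peptide and ATP (4 μM GSK3α, 2 μM GSK3b, or 1 mM). The EDTA-stopped reaction was read by TR-FRET (Tb-anti-pSer641/streptavidin-d2), and IC50s were fitted.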

Chain of GSK3α (P18265 whole entry): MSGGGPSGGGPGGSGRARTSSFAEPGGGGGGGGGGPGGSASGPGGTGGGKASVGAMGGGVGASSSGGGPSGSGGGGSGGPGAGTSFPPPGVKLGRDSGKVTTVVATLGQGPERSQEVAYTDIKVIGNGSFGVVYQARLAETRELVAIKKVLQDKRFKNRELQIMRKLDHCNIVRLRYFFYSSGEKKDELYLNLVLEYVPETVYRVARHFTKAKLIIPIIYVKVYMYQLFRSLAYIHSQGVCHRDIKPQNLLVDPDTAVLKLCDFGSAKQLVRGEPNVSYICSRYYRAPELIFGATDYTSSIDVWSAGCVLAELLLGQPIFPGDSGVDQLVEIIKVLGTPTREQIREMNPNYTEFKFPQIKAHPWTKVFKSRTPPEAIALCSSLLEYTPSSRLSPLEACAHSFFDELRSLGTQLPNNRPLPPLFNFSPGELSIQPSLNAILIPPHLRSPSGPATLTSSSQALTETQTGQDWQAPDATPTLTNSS

With CCC1(c2cccc(C(F)(F)F)c2)C2=C(Nc3n[nH]cc31)C(F)C(C)(C)CC2=O (single isomer, unassigned) [Compound 837646, 4-ethyl-8-fluoro-7,7-dimethyl-4-(3-(trifluoromethyl)phenyl)-2,4,6,7,8,9-hexahydro-5H-pyrazolo[3,4-b]quinolin-5-one] the “target engagement at GSK3α, 24 hr” value (GSK3α; 24 hr, both 60 mg/kg and 20 mg/kg) was ~50%, the “target engagement for GSK3α, 3 hours” value (GSK3α; three hours after dosing (Cmax, 60 mg/kg)) was “over 90%” and the IC50 ([1]; 1 nM GSK3b, 2 μM ATP, 30 minute preincubation, read-out: GSK3-B TR-FRET BIOCHEMICAL (TR-FRET), IC50) was ≤ 100 nM. The IC50 ([1]; GSK3-B (TR-FRET 1 mM ATP), IC50, 1 mM ATP) was 1000 to 5000 nM.
